Test results: ChEMBL document CHEMBL1130894, “Discovery of a novel benzyloxyisoquinoline derivative with potent anti-Helicobacter pylori activity” (1998)
Converted amounts (≈) assume the structure as drawn.

Tests used:
Format in all cases: functional
Helicobacter pylori [1] = assay: Antibacterial activity was evaluated against Helicobacter pylori (13001).
Helicobacter pylori [2] = assay: Antibacterial activity was evaluated against Helicobacter pylori (8007).
Helicobacter pylori [3] = assay: Antibacterial activity was evaluated against Helicobacter pylori (9005).
Helicobacter pylori [4] = assay: Antibacterial activity was evaluated against Helicobacter pylori (FP1757).
Escherichia coli = assay: Antibacterial activity was evaluated against Escherichia coli (NIHJ JC-2)
Enterococcus faecalis = assay: Antibacterial activity was evaluated against Enterococcus faecalis (0115)
Moraxella catarrhalis = assay: Antibacterial activity was evaluated against M.(B).catarrhalis (6014)
Serratia marcescens = assay: Antibacterial activity was evaluated against Serratia marcescens (3013)
Staphylococcus aureus = assay: Antibacterial activity was evaluated against Staphylococcus aureus (209P JC-1)

Row | SMILES | MIC (Helicobacter pylori [1]) [µg/mL] | MIC (Helicobacter pylori [2]) [µg/mL] | MIC (Helicobacter pylori [3]) [µg/mL] | MIC (Helicobacter pylori [4]) [µg/mL] | MIC (Escherichia coli) [µg/mL] | MIC (Enterococcus faecalis) [µg/mL] | MIC (Moraxella catarrhalis) [µg/mL] | MIC (Serratia marcescens) [µg/mL] | MIC (Staphylococcus aureus) [µg/mL]
1 | Nc1ccc(Cl)c(COc2cccc3cnccc23)c1Cl | 0.78 (≈ 2.44 µM) | 0.78 (≈ 2.44 µM) | 0.78 (≈ 2.44 µM) | 0.78 (≈ 2.44 µM) |  |  |  |  | 
2 | CC(=O)Nc1ccc(Cl)c(COc2cccc3cnccc23)c1Cl | 0.025 (≈ 0.0692 µM) | 0.025 (≈ 0.0692 µM) | 0.05 (≈ 0.138 µM) | 0.0125 (≈ 0.0346 µM) | > 100 | > 100 | > 100 | > 100 | > 100
3 | CC(=O)Nc1cc(Cl)cc(COc2cccc3cnccc23)c1Cl | 0.2 (≈ 0.554 µM) | 0.39 (≈ 1.08 µM) | 0.39 (≈ 1.08 µM) | 0.39 (≈ 1.08 µM) |  |  |  |  | 
4 | CC(=O)Nc1c(Cl)ccc(Cl)c1COc1cccc2cnccc12 | ≥ 12.5 | ≥ 12.5 | ≥ 12.5 | ≥ 12.5 |  |  |  |  | 
5 | c1cc(OCc2cccc3nonc23)c2ccncc2c1 | 0.2 (≈ 0.721 µM) | 0.39 (≈ 1.41 µM) | 0.78 (≈ 2.81 µM) | 0.78 (≈ 2.81 µM) |  |  |  |  | 
6 | Clc1cccc(Cl)c1COc1cccc2cnccc12 | 0.78 (≈ 2.56 µM) | 0.78 (≈ 2.56 µM) | 1.56 (≈ 5.13 µM) | 0.78 (≈ 2.56 µM) |  |  |  |  | 
7 | Nc1ccc(Cl)c(COc2cccc3cnccc23)c1 | 0.39 (≈ 1.37 µM) | 0.39 (≈ 1.37 µM) | 0.39 (≈ 1.37 µM) | 0.39 (≈ 1.37 µM) |  |  |  |  | 
8 | CC(=O)Nc1ccc(Cl)c(COc2cccc3cnccc23)c1 | 0.78 (≈ 2.39 µM) | 0.78 (≈ 2.39 µM) | 0.78 (≈ 2.39 µM) | 1.56 (≈ 4.77 µM) |  |  |  |  | 
9 | c1ccc(COc2cccc3cnccc23)cc1 | 0.78 (≈ 3.32 µM) | 1.56 (≈ 6.63 µM) | 1.56 (≈ 6.63 µM) | 1.56 (≈ 6.63 µM) |  |  |  |  | 
10 | O=[N+]([O-])c1ccc(Cl)c(COc2cccc3cnccc23)c1Cl | 1.56 (≈ 4.47 µM) | 1.56 (≈ 4.47 µM) | 1.56 (≈ 4.47 µM) | 1.56 (≈ 4.47 µM) |  |  |  |  | 
11 | Nc1cccc(COc2cccc3cnccc23)c1 | 0.78 (≈ 3.12 µM) | 1.56 (≈ 6.23 µM) | 1.56 (≈ 6.23 µM) | 1.56 (≈ 6.23 µM) |  |  |  |  | 
12 | Oc1cccc2cnccc12 | 25 (≈ 172 µM) | 25 (≈ 172 µM) | 50 (≈ 344 µM) | 50 (≈ 344 µM) |  |  |  |  | 
13 | Nc1cccc(COc2cccc3cnccc23)c1Cl | 0.2 (≈ 0.702 µM) | 0.39 (≈ 1.37 µM) | 0.39 (≈ 1.37 µM) | 0.78 (≈ 2.74 µM) |  |  |  |  | 
14 | CC(=O)Nc1cccc(COc2cccc3cnccc23)c1Cl | 0.39 (≈ 1.19 µM) | 0.39 (≈ 1.19 µM) | 0.39 (≈ 1.19 µM) | 0.39 (≈ 1.19 µM) |  |  |  |  | 
15 | CC(=O)Nc1cccc(COc2cccc3cnccc23)c1 | 0.78 (≈ 2.67 µM) | 0.78 (≈ 2.67 µM) | 0.78 (≈ 2.67 µM) | 1.56 (≈ 5.34 µM) |  |  |  |  | 
16 | CC1(C)S[C@@H]2[C@H](NC(=O)[C@H](N)c3ccc(O)cc3)C(=O)N2[C@H]1C(=O)O [AMOXICILLIN] | 0.025 (≈ 0.0684 µM) | 0.1 (≈ 0.274 µM) | 0.1 (≈ 0.274 µM) | 0.025 (≈ 0.0684 µM) | 3.13 (≈ 8.57 µM) | 0.39 (≈ 1.07 µM) | 0.39 (≈ 1.07 µM) | > 100 | 0.05 (≈ 0.137 µM)
17 | CC[C@H]1OC(=O)[C@H](C)[C@@H](O[C@H]2C[C@@](C)(OC)[C@@H](O)[C@H](C)O2)[C@H](C)[C@@H](O[C@@H]2O[C@H](C)C[C@H](N(C)C)[C@H]2O)[C@](C)(OC)C[C@@H](C)C(=O)[C@H](C)[C@@H](O)[C@]1(C)O [CLARITHROMYCIN] | 0.05 (≈ 0.0668 µM) | 0.05 (≈ 0.0668 µM) | 0.1 (≈ 0.134 µM) | 0.05 (≈ 0.0668 µM) | 100 (≈ 134 µM) | 0.2 (≈ 0.267 µM) | < 0.025 | 100 (≈ 134 µM) | 0.1 (≈ 0.134 µM)
